Tested on: TNFa-induced NF-kB reporter cells, inhibition
Experiment: TNFa-triggered NF-kB activation inhibitors, SAR follow-up, cell-based, set 3 (AID 2801)

CCCCn1c(SCC(=O)Nc2nnc(CC)s2)nc2c1c(=O)n(C)c(=O)n2C
IC50: 13 µM

— PubChem BioAssay AID2801 (Sanford-Burnham Center for Chemical Genomics, 2010)
